Tested on: subjects undergoing elective laparoscopic abdominal or gynaecological surgery under general anaesthesia
Experiment: Example 3: placebo-controlled dose study of compound 1 injection for the prevention of postoperation nausea and vomiting
Format: in vivo, patients
Settings: for Complete response (CR) within 24 h after surgery: single intravenous bolus; for Significant nausea within 24 h after surgery: VAS score ≥ 4 cm; for subject satisfaction scores for PONV / time to the first occurrence of emesis (vomiting or retching) or administration of rescue treatment within 24 h after surgery: mean ± standard deviation
Procedure: Study period: Treatment duration: 24 h after surgery; Follow-up duration: 48 h after surgery
Protocol: This study was a multicentre, randomised, double-blind, placebo-controlled study. About 200 subjects undergoing elective laparoscopic abdominal or gynaecological surgery under general anaesthesia were planned to be enrolled and randomised at a 1 : 1 : 1 : 1 ratio into the compound 1-60 µg group (50 subjects), the compound 1-120 µg group (50 subjects), the compound 1-180 µg group (50 subjects), and the placebo group (50 subjects).
A single dose of the study drug was administered within 15 min before the end of surgery. The dosing regimen is as follows: Compound 1-60 µg group: A single dose of 60 µg of compound 1 injection was administered within 15 min before the end of surgery, via intravenous bolus injection, with an intravenous bolus injection time of not less than 30 s.
Compound 1-120 µg group: A single dose of 120 µg of compound 1 injection was administered within 15 min before the end of surgery, via intravenous bolus injection, with an intravenous bolus injection time of not less than 30 s.
Compound 1-180 µg group: A single dose of 180 µg of compound 1 injection was administered within 15 min before the end of surgery, via intravenous bolus injection, with an intravenous bolus injection time of not less than 30 s.
Placebo group: A single dose of placebo was administered within 15 min before the end of surgery, via intravenous bolus injection, with an intravenous bolus injection time of not less than 30 s.
Primary efficacy endpoint: Complete response (CR) rate at 24 h after surgery (CR is defined as no vomiting or retching and no use of rescue medication within 24 h after surgery).
Secondary efficacy endpoints: Proportion of subjects experiencing nausea after surgery; proportion of subjects experiencing significant nausea after surgery (significant nausea is defined as a VAS score ≥ 4 cm); proportion of subjects experiencing vomiting after surgery (vomiting [even with expulsion of a minimal amount of gastric contents] or retching [muscular movement of vomiting without expulsion of gastric contents]); proportion of subjects using rescue medication after surgery; time to the first occurrence of emesis (vomiting or retching) or administration of rescue treatment within 24 h after surgery, whichever occurs first; cumulative dosage of analgesic agents within 24 h after surgery; and subject and investigator satisfaction scores for PONV.
Safety endpoints: Incidence and severity of adverse events; and vital signs, 12-lead ECG, physical examination, and laboratory examinations.
Subjects who met all inclusion criteria and none of the exclusion criteria received a single dose of compound 1 injection or placebo within 15 min before the end of surgery (defined as the completion of the last suture of the wound).
The use of any antiemetic agents or agents with antiemetic effects, other than the study drug and rescue medications specified in the protocol, was prohibited from 24 h before the start of surgery (defined as the start of skin incision) to 24 h after the end of surgery. Prophylactic antiemetic treatment was prohibited.
Within 24 h after the end of surgery, if the subject experienced ≥ 1 episode of vomiting, retching, or nausea and complained of requiring antiemetic treatment, the subject received rescue antiemetic agents specified in the protocol after assessment by the investigator (tropisetron was the preferred rescue antiemetic agent; it was recommended that an initial intravenous dose of 2.5 mg be administered, followed by additional doses as needed, not to exceed 10 mg within 24 h). If tropisetron was insufficiently effective, other agents were used by the investigator in accordance with routine clinical practice.
Within 30 min after the end of surgery, a PCA pump containing morphine hydrochloride injection was initiated. Subjects self-administered analgesia by pressing the PCA pump when experiencing pain. […]

[1] = Example 3, compared with placebo

With `CC(=O)N1CC2(CCN(C(=O)[C@@H](CCCCN)NC(=O)[C@@H](CC(C)C)NC(=O)[C@@H](Cc3ccccc3)NC(=O)[C@H](N)Cc3ccccc3)CC2)C1` [Compound 1, (2R)-N-[(1R)-1-(2-acetyl-2,7-diazaspiro[3.5]nonane-7-carbonyl)-5-amino-pentyl]-2-[[(2R)-2-[[(2R)-2-amino-3-phenyl-propionyl]amino]-3-phenylpropionyl]amino]-4-methyl-pentanamide] the “investigator satisfaction scores for PONV” value (60 µg group) was 8.9 ± 1.84, the “Nausea within 24 h after surgery” value (60 µg group (N = 49)) was 18 (36.7) n (%) and the “Use of rescue medication within 24 h after surgery” value (60 µg group (N = 49)) was 7 (14.3) n (%). The “Vomiting within 24 h after surgery” value (60 µg group (N = 49)) was 12 (24.5) n (%), the “Complete response (CR) within 24 h after surgery” value (60 µg group (N = 49)) was 36 (73.5) n (%) and the “Significant nausea within 24 h after surgery” value (shortened to “Significant nausea within 24 h”) (60 µg group (N = 49)) was 9 (18.4) n (%). The “subject satisfaction scores for PONV” value (60 µg group) was 9.0 ± 1.89, the “time to the first occurrence of emesis (vomiting or retching) or administration of rescue treatment within 24 h after surgery” value (60 µg group) was 18.3109 ± 9.6700 h and the “CR rate at 24 h after surgery, comparison among dose groups” value (120 µg group) was “highest CR rate”. The “investigator satisfaction scores for PONV” value (120 µg group) was 8.9 ± 1.71, the “Nausea within 24 h after surgery” value (120 µg group (N = 49)) was 11 (22.4) n (%) and the “Use of rescue medication within 24 h after surgery” value (120 µg group (N = 49)) was 6 (12.2) n (%). The “Vomiting within 24 h after surgery” value (120 µg group (N = 49)) was 8 (16.3) n (%), the “Complete response (CR) within 24 h after surgery” value (120 µg group (N = 49)) was 40 (81.6) n (%) and the “Significant nausea within 24 h” value (120 µg group (N = 49)) was 7 (14.3) n (%). The “subject satisfaction scores for PONV” value (120 µg group) was 9.1 ± 1.52, the “time to the first occurrence of emesis (vomiting or retching) or administration of rescue treatment within 24 h after surgery” value (120 µg group) was 20.1119 ± 8.4192 h and the “investigator satisfaction scores for PONV” value (180 µg group) was 9.0 ± 1.39. The “Nausea within 24 h after surgery” value (180 µg group (N = 50)) was 16 (32.0) n (%), the “Use of rescue medication within 24 h after surgery” value (180 µg group (N = 50)) was 8 (16.0) n (%) and the “Vomiting within 24 h after surgery” value (180 µg group (N = 50)) was 9 (18.0) n (%). For the same molecule, the “Complete response (CR) within 24 h after surgery” value (180 µg group (N = 50)) was 39 (78.0) n (%), the “Significant nausea within 24 h” value (180 µg group (N = 50)) was 11 (22.0) n (%) and the “subject satisfaction scores for PONV” value (180 µg group) was 9.0 ± 1.65. For the same molecule, the “time to the first occurrence of emesis (vomiting or retching) or administration of rescue treatment within 24 h after surgery” value (180 µg group) was 19.7203 ± 8.7225 h, the “TEAEs leading to study withdrawal or death” value (Example 3) was “no TEAEs leading to study withdrawal or death were observed” and the “TESAEs (treatment-emergent serious adverse events)” value (Example 3) was “No TESAEs (treatment-emergent serious adverse events) occurred”. For the same molecule, the overall safety (Example 3) was “good overall safety”, the “severity of TEAEs and ADRs” value (Example 3, all TEAEs and ADRs) was “Grade 1-2” and the “incidence of ADRs” value [1] was “slightly higher than that in the placebo group”. The “overall incidence of TEAEs” value [1] was “lower than that in the placebo group”, the “proportion of subjects experiencing nausea, severe nausea, vomiting, and using rescue medication within 24 h after surgery, compared with placebo” value (each dose group) was “lower than that in the placebo group” and the “complete response (CR) rate at 24 h after surgery, compared with placebo” value (each dose group (60, 120, 180 µg), P < 0.05) was “higher than that in the placebo group”. For the same molecule, the “PONV satisfaction scores of investigators, compared with placebo” value (each dose group, P < 0.05) was “higher than those in the placebo group”, the “PONV satisfaction scores of subjects, compared with placebo” value (each dose group, P < 0.05) was “higher than those in the placebo group” and the “time to the first occurrence of emesis (vomiting or retching) or administration of rescue treatment within 24 h after surgery, compared with placebo” value (each dose group, P < 0.05) was “later than that in the placebo group”.

Source: patent EP4792822A1, “USE OF PEPTIDE AMIDE COMPOUND IN PREPARATION OF DRUG FOR […] AND VOMITING” (Haisco Pharmaceutical Group Co., Ltd., priority 2023, dated 2025)
